The text below walks through data of patent US20180296630A1, “METHODS AND COMPOSITIONS FOR PREVENTING OR TREATING OPHTHALMIC CONDITIONS” (Stealth BioTherapeutics Corp, priority 2012, published 2018).

Non-standard residues stand in square brackets, D forms with d. No end group written: not given here.

The subject of data set [1] is several mammalian cell types. As to conditions: energy-independent manner; cited from earlier work.
For data set [2], the system named is STZ diabetic rats. As to the kind of experiment: Lens opacity (cataract) in STZ rat model. The conditions noted are these: 10 mg (Table 11: 10 mg/kg s.c.). The class given is in vivo, Sprague-Dawley rat. How it is done: (§1) A rat model of diabetes was established by combination of 6-week HFD and low dose of STZ (30 mg/kg) injection or a single high dose of STZ (65 mg/kg) in SD rats. See generally, K. Srinivasan, B. Viswanad, Lydia Asrat, C. L. Kaul and P. Ramarao, Combination of high-fat diet-fed and low-dose streptozotocin-treated rat: A model for type 2 diabetes and pharmacological screening, Pharmacological Research, 52(4): 313-320, 2005. Rats of the same batch fed with normal chow (NRC) were used as a control.

For data set [3], the system named is STZ and HFD/STZ diabetic rats. As to the kind of experiment: Inner blood-retinal barrier function (Evans blue extravasation) in diabetic SD rats. Type of data set: in vivo, Sprague-Dawley rat. The conditions noted are these: compared to rats on a HFD not administered peptide. How it is done:
FIGS. 10A and 10B are charts showing the integrity of the blood-retinal barrier of normal rats (NRC), diabetic rats, and diabetic rats treated with Phe-D-Arg-Phe-Lys-NH2 (SS-20) or D-Arg-2′,6′-Dmt-Lys-Phe-NH2(SS-31), as analyzed by Evans blue extravasation. (A) diabetes induced by STZ; (B) diabetes induced by HFD/STZ.
as §1
The effect of the aromatic-cationic peptides on the inner blood-retinal barrier function in the SD rat model was investigated.

The test system of data set [4] is HFD/STZ diabetic rats. As to the kind of experiment: Lens opacity (cataract) in HFD/STZ rat model. The class given is in vivo, Sprague-Dawley rat. As to conditions: for Percentage of opacity / Percentage of severe opacity / Turbidity degree + (mildly opaque), number in group / Turbidity degree ++ (opaque), number in group / Turbidity degree +++ (moderately opaque), number in group / Turbidity degree ++++ (severely opaque), number in group / Turbidity degree − (transparent), number in group: HFD/STZ rat model. On the procedure:
as §1

As to 2′,6′-Dmt-D-Arg-Phe-Lys-NH2, the “penetration of the plasma membrane” value in data set [1] was “readily penetrates”.
With F[dR]FK-NH2, in data set [2], the “Opacity degree ++++, number in group” value came out at 1; the “Opacity degree +++, number in group” value was found to be 0; the “Opacity degree ++, number in group” value is listed as 2; the “Opacity degree +, number in group” value is listed as 0. In data set [2], the “Opacity degree −, number in group” value is given as 2; the Percentage of opacity was determined as 60.0%; the “Percentage of severe opacity” value amounted to 20.0%. For the same substance, the “inner blood-retinal barrier function” value in data set [3] is given as “improved”. Moreover, the “cataract formation in the lenses of diabetic rats” value in data set [4] (HFD/STZ and STZ models (FIGS. 6 and 7, Tables 13 and 14)) is “prevention or reversal of cataract formation”. In addition, in data set [4] (3 mg (Table 9: 3 mg/kg s.c.)), the Percentage of opacity was found to be 75.0%; the “Percentage of severe opacity” value is recorded as 25.0%; the “Turbidity degree + (mildly opaque), number in group” value was determined as 1; the “Turbidity degree ++ (opaque), number in group” value was determined as 1. For the same substance, in data set [4] (3 mg (Table 9: 3 mg/kg s.c.)), the “Turbidity degree +++ (moderately opaque), number in group” value worked out at 0; the “Turbidity degree ++++ (severely opaque), number in group” value was 1; the “Turbidity degree − (transparent), number in group” value came out at 1. In data set [4] (10 mg (Table 9: 10 mg/kg s.c.)), the Percentage of opacity was 75.0%; the “Percentage of severe opacity” value came out at 0%; the “Turbidity degree + (mildly opaque), number in group” value is listed as 2; the “Turbidity degree ++ (opaque), number in group” value is 1. For the same substance, in data set [4] (10 mg (Table 9: 10 mg/kg s.c.)), the “Turbidity degree +++ (moderately opaque), number in group” value turned out to be 0; the “Turbidity degree ++++ (severely opaque), number in group” value is recorded as 0; the “Turbidity degree − (transparent), number in group” value worked out at 1.
